The target in the assay is feline CaSR (f:CaSR) (Felis catus, UniProt A0ABI7YY68). Put plainly: cell-based. It is filed as cell-based.
[1] abbreviates: double-injection protocol, agonist mode and PAM mode.
[2] abbreviates: PAM mode, CaCl2 injected at EC20, read-out: EC50 (PAM).
Where [3] appears, read: agonist mode, read-out: EC50 (Agonist).

The structures appear in SMILES notation. Read-outs that look alike come from different tables or passages of the source.

feline CaSR (f:CaSR), sequence (A0ABI7YY68 entry or part of it): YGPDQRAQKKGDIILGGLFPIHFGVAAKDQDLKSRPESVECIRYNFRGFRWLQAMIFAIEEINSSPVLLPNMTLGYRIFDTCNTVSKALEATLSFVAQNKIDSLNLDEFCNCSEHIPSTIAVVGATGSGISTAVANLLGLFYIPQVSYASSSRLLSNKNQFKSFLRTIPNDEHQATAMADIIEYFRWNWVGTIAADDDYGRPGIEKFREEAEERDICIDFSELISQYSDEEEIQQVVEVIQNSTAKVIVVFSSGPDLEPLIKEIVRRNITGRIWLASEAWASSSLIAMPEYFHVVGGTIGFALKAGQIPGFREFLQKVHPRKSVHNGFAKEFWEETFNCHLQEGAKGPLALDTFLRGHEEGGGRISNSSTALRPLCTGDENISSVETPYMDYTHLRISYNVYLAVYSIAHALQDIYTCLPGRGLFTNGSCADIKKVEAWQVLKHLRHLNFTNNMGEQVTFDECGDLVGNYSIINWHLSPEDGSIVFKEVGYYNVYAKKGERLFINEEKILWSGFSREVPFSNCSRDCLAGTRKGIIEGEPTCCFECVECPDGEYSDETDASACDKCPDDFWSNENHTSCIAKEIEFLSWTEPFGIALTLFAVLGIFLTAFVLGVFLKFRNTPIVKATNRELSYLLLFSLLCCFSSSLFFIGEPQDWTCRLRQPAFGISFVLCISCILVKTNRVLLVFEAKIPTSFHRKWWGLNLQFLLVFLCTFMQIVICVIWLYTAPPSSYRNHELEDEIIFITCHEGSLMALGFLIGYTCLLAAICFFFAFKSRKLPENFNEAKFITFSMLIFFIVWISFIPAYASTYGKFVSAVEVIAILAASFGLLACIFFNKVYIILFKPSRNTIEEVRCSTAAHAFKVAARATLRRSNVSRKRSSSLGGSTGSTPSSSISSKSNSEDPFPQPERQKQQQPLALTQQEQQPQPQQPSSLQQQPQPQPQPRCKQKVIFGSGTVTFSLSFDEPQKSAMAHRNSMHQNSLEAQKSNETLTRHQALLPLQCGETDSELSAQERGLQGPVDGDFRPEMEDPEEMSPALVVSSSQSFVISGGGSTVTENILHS

For the molecule `CC[C@H](NC(=O)CC[C@H](N)C(=O)O)C(=O)O`, the “Activity Type” value under setting [1] is “Agonist”.

On to `NC(CC(F)C(=O)O)C(=O)O` (racemic) [4-Fluoro-DL-glutamic acid], for which the “Activity Type” value under setting [1] is given as “Agonist”.

Take `NC(CCCCC(=O)O)C(=O)O` (racemic) [(±)-2-Aminopimelic acid]: the “Activity Type” value is “Agonist”.

As to `COC(=O)C(N)CC(=O)O` (racemic) [DL-Aspartic acid alpha-methyl ester], the “Activity Type” value was “Agonist”.

As to `NC(CC(C(=O)O)C(=O)O)C(=O)O` (racemic) [γ-Carboxy-DL-glutamic acid], the “Activity Type” value is on record as “Agonist”.

For `N[C@@H](CP(=O)(O)O)C(=O)O` (stereo in doubt) [2-Amino-3-phosphonopropionic acid], under setting [1], the “Activity Type” value is on record as “Agonist”.

As for `N[C@@H](CCP(=O)(O)O)C(=O)O` (stereo in doubt) [2-Amino-4-phosphonobutyric acid], the “Activity Type” value under setting [1] is “Agonist”.

The EC50 is the concentration at which the effect is half-maximal. With `COc1cc(C(O)(c2nc3ccccc3s2)C(F)(F)F)c(OC)cc1N` (stereo not shown) [1-(4-amino-2,5-dimethoxyphenyl)-1-(benzo[d]thiazol-2-yl)-2,2,2-trifluoroethanol], the EC50 under setting [2] was 2.42 µM. Moreover, the “Activity Type” value under setting [1] is “PAM”.

For `Cc1ccc(C2(CCNC(C)c3ccc(Cl)cc3)CCOC(C)(C)C2)cc1` (stereo not shown) [1-(4-chlorophenyl)-N-(2-(2,2-dimethyl-4-(p-tolyl)tetrahydro-2H-pyran-4-yl)ethyl)ethanamine], the “Activity Type” value under setting [1] is “PAM”.

On to `Cc1ccc(C(C)(O)c2nc3ccccc3s2)c(C)c1` (stereo not shown) [1-(benzo[d]thiazol-2-yl)-1-(2,4-dimethylphenyl)ethanol], for which the EC50 under setting [2] was determined as 0.0511 µM. Further, under setting [1], the “Activity Type” value is “PAM”.

With `CC(NCC1CCCN(C)C1c1cccs1)c1cc(Cl)c(N)c(Cl)c1` (stereo not shown) [2,6-dichloro-4-(1-(((1-methyl-2-(thiophen-2-yl)piperidin-3-yl)methyl)amino)ethyl)aniline], the EC50 under setting [2] worked out at 8.68 µM. For the same molecule, under setting [1], the “Activity Type” value was “PAM”.

As for `CC(=O)N1C=Cc2ccccc2C1CC(=O)NC(C)c1cccc(Br)c1` (stereo not shown) [2-(2-acetyl-1,2-dihydroisoquinolin-1-yl)-N-(1-(3-bromophenyl)ethyl)acetamide], the EC50 under setting [2] turned out to be 12.1 µM. In addition, the “Activity Type” value under setting [1] is given as “PAM”.

Regarding `N[C@@H](C[C@H](O)C(=O)O)C(=O)O` [2S,4S-γ-Hydroxy-L-glutamic acid], the “Activity Type” value under setting [1] is reported as “Agonist”.

With `CC(NCCC(c1ccccc1)C1CCOC(C)(C)C1)c1ccccc1` (stereo not shown) [3-(2,2-dimethyltetrahydro-2H-pyran-4-yl)-3-phenyl-N-(1-phenylethyl)propan-1-amine], the 50% effective concentration (EC50) under setting [2] stood at 0.988 µM. The “Activity Type” value under setting [1] is “PAM”.

In the case of `OCC(CNC1CCCOc2cc(Cl)ccc21)Cc1ccccn1` (stereo not shown) [3-((8-chloro-2,3,4,5-tetrahydrobenzo[b]oxepin-5-yl)amino)-2-(pyridin-2-ylmethyl)propan-1-ol], under setting [1], the “Activity Type” value is on record as “PAM”.

For the molecule `CC(NCCC(c1ccccc1)c1ccco1)c1ccccc1` (stereo not shown) [3-(furan-2-yl)-3-phenyl-N-(1-phenylethyl)propan-1-amine], the EC50 under setting [2] amounted to 0.458 µM. In addition, the “Activity Type” value under setting [1] is given as “PAM”.

Regarding `CC(NCCC(Cc1ccccc1)c1ccco1)c1ccccc1` (stereo not shown) [3-(furan-2-yl)-4-phenyl-N-(1-phenylethyl)butan-1-amine], under setting [2], the half-maximal effective concentration (EC50) stood at 0.673 µM. Further, the “Activity Type” value under setting [1] was “PAM”.

Regarding `Cc1ccc(C(CCNC(C)c2cccs2)c2ccco2)cc1` (stereo not shown) [3-(furan-2-yl)-N-(1-(thiophen-2-yl)ethyl)-3-(p-tolyl)propan-1-amine], the EC50 under setting [2] came to 2.25 µM. The “Activity Type” value under setting [1] is “PAM”.

As for `Cc1ccc(C(CCNC(C)c2ccccc2)c2ccco2)cc1` (stereo not shown) [3-(furan-2-yl)-N-(1-phenylethyl)-3-(p-tolyl)propan-1-amine], the EC50 under setting [2] was 0.752 µM. Besides, the “Activity Type” value under setting [1] was “PAM”.

In the case of `N[C@@H](CCC(=O)N[C@@H](CSCc1c[nH]c2ccccc12)C(=O)NCC(=O)O)C(=O)O` [3-Glutathionyl-S-methylindole], the “Activity Type” value under setting [1] is “Agonist”.

`c1ccc(C2CCN(C3CCCc4ccccc43)C2)cc1` (stereo not shown) [3-phenyl-1-(1,2,3,4-tetrahydronaphthalen-1-yl)pyrrolidine]: under setting [1], the “Activity Type” value is on record as “PAM”.

In the case of `CC(NC1CCc2c(F)cc(Br)cc21)c1ccncc1` (stereo not shown) [6-bromo-4-fluoro-N-(1-(pyridin-4-yl)ethyl)-2,3-dihydro-1H-inden-1-amine], the “Activity Type” value under setting [1] is given as “PAM”.

On to `N[C@]1(C(=O)O)C[C@H](C(=O)O)C1` [(1s,3s)-1-aminocyclobutane-1,3-dicarboxylic acid], for which the “Activity Type” value was “Agonist”.

Consider `[Ba]` [Barium], for which the EC50 under setting [3] came out at 1170 µM. Also, the “Activity Type” value under setting [1] is given as “Agonist”.

As to `C[C@@H](NCc1cc2ccccc2[nH]1)c1cccc2ccccc12` [Calindol, reference compound], the “Activity Type” value under setting [1] was “PAM”.

On to `C[C@@H](NCCCc1cccc(C(F)(F)F)c1)c1cccc2ccccc12` [Cinacalcet, reference compound], for which the “Activity Type” value is given as “PAM EC50 0.746 uM”.

Take `[Gd]` [Gadolinium]: the EC50 under setting [3] came out at 295 µM. For the same molecule, the “Activity Type” value under setting [1] was “Agonist”.

In the case of `CNC(C)[C@@H]1CC[C@@H](N)[C@@H](O[C@H]2[C@H](O)[C@@H](O[C@H]3OC[C@](C)(O)[C@H](NC)[C@H]3O)[C@H](N)C[C@@H]2N)O1` (stereo partly shown) [Gentamicin, reference compound], the EC50 under setting [3] is 990 µM. Besides, under setting [1], the “Activity Type” value was “Agonist”.

For `N[C@@H](CCC(=O)N[C@@H](CS)C(=O)NCC(=O)O)C(=O)O` [Glutathione], the “Activity Type” value is listed as “Agonist EC 50 6.39 mM”.

Regarding `C[C@H](NC(=O)C[C@H](N)C(=O)O)C(=O)O` [H-Asp(Ala-OH)—OH], under setting [1], the “Activity Type” value was “Agonist”.

As for `N[C@@H](CC(=O)NCC(=O)O)C(=O)O` [H-Asp(Gly-OH)—OH], the “Activity Type” value under setting [1] is “Agonist”.

Regarding `CC(C)C[C@H](NC(=O)C[C@H](N)C(=O)O)C(=O)O` [H-Asp(Leu-OH)—OH], the “Activity Type” value under setting [1] is on record as “Agonist”.

For the molecule `N[C@@H](CC(=O)N[C@@H](Cc1ccccc1)C(=O)O)C(=O)O` [H-Asp(Phe-OH)—OH], the “Activity Type” value under setting [1] is “Agonist”.

For `N[C@@H](CCC(=O)N[C@@H](CS)C(=O)O)C(=O)O` [H-Glu(Cys-OH)—OH], the “Activity Type” value is on record as “Agonist”.

As for `NC(=O)CC[C@H](NC(=O)CC[C@H](N)C(=O)O)C(=O)O` [H-Glu(Gln-OH)—OH], the “Activity Type” value under setting [1] is “Agonist”.

Take `NC(=O)CC[C@H](NC(=O)CC[C@H](NC(=O)CC[C@H](N)C(=O)O)C(=O)O)C(=O)O` [H-Glu(Glu(Gln-OH)—OH)—OH]: the “Activity Type” value under setting [1] was “Agonist”.

As to `N[C@@H](CCC(=O)N[C@@H](CCC(=O)N[C@@H](CCC(=O)O)C(=O)O)C(=O)O)C(=O)O` [H-Glu(Glu(Glu-OH)—OH)—OH], the “Activity Type” value is “Agonist EC50 2.35 mM”. In addition, the EC50 under setting [3] turned out to be 2350 µM.

For `N[C@@H](CCC(=O)N[C@@H](CCC(=O)O)C(=O)O)C(=O)O` [H-Glu(Glu-OH)—OH], the “Activity Type” value under setting [1] is listed as “Agonist”.

Turning to `N[C@@H](CCC(=O)NCC(=O)O)C(=O)O` [H-Glu(Gly-OH)—OH], the “Activity Type” value under setting [1] was “Agonist”.

For the molecule `CC(C)C[C@H](NC(=O)CC[C@H](N)C(=O)O)C(=O)O` [H-Glu(Leu-OH)—OH], the “Activity Type” value under setting [1] was “Agonist”.

In the case of `CSCC[C@H](NC(=O)CC[C@H](N)C(=O)O)C(=O)O` [H-Glu(Met-OH)—OH], under setting [1], the “Activity Type” value is “Agonist”.

Consider `N[C@@H](CCC(=O)N[C@@H](Cc1c[nH]c2ccccc12)C(=O)O)C(=O)O` [H-Glu(Trp-OH)—OH], for which, under setting [1], the “Activity Type” value was “Agonist”.

In the case of `N[C@@H](CCCC(=O)O)C(=O)O` [L-2-Aminoadipic acid], the “Activity Type” value under setting [1] is listed as “Agonist”.

With `COC(=O)C[C@H](N)C(=O)O` [L-Aspartic acid beta-methyl ester], under setting [1], the “Activity Type” value is on record as “Agonist”.

For `N[C@@H](CC(=O)O)C(=O)O` [L-Aspartic acid], the “Activity Type” value is reported as “Agonist EC50 4.11 mM”.

Turning to `N[C@@H](CS(=O)(=O)O)C(=O)O` [L-Cysteic acid], the “Activity Type” value under setting [1] is recorded as “Agonist”.

Take `N[C@@H](CCC(=O)O)C(=O)O` [L-Glutamic acid]: the “Activity Type” value was “Agonist”.

Take `N[C@@H](CCS(=O)(=O)O)C(=O)O` [L-Homocysteic acid]: the “Activity Type” value under setting [1] was “Agonist”.

For the molecule `NC(=O)[C@@H](N)CCC(=O)O` [L-Isoglutamine], the “Activity Type” value under setting [1] is given as “Agonist”.

As to `[Mg]` [Magnesium], the “Activity Type” value under setting [1] was “Agonist”.

For `O=P(O)(O)CP(=O)(O)O` [Methylenediphosphonic acid], under setting [3], the concentration for a half-maximal effect (EC50) is 1290 µM. The “Activity Type” value under setting [1] is reported as “Agonist”.

As for `Cc1ccc(C(C)NC(C)c2cc3ccccc3[nH]2)cc1C` (stereo not shown) [N-(1-(1H-indol-2-yl)ethyl)-1-(3,4-dimethylphenyl)ethanamine], under setting [1], the “Activity Type” value was “PAM”.

In the case of `COc1ccccc1C(CCNC(C)c1ccc(Cl)cc1)c1ccc(OC(C)C)cc1` (stereo not shown) [N-(1-(4-chlorophenyl)ethyl)-3-(4-isopropoxyphenyl)-3-(2-methoxyphenyl)propan-1-amine], the EC50 under setting [2] worked out at 0.714 µM. Besides, under setting [1], the “Activity Type” value was “PAM”.

With `CC(C)Oc1ccc(C(CCNC(C)c2ccc(Cl)cc2)c2ccccc2)cc1` (stereo not shown) [N-(1-(4-chlorophenyl)ethyl)-3-(4-isopropoxyphenyl)-3-phenylpropan-1-amine], under setting [2], the EC50 was 4.49 µM. Besides, under setting [1], the “Activity Type” value is given as “PAM”.

Regarding `CC(C)Oc1ccc(C(CCNC(C)c2ccc(Cl)cc2)C(C)C)cc1` (stereo not shown) [N-(1-(4-chlorophenyl)ethyl)-3-(4-isopropoxyphenyl)-4-methylpentan-1-amine], the EC50 under setting [2] stood at 135 µM. Also, the “Activity Type” value under setting [1] is on record as “PAM”.

With `CC(C)CCC(CCNC(C)c1ccc(Cl)cc1)c1ccc(OC(C)C)cc1` (stereo not shown) [N-(1-(4-chlorophenyl)ethyl)-3-(4-isopropoxyphenyl)-6-methylheptan-1-amine], under setting [2], the EC50 is 172 µM. Moreover, under setting [1], the “Activity Type” value was “PAM”.

`COc1ccc(C(CCNC(C)c2ccc(Cl)cc2)C(C)C)cc1` (stereo not shown) [N-(1-(4-chlorophenyl)ethyl)-3-(4-methoxyphenyl)-4-methylpentan-1-amine]: the half-maximal effective concentration (EC50) under setting [2] was 1.44 µM. Under setting [1], the “Activity Type” value was “PAM”.

For the origin of these results see patent US20190274334A1 (MARS, INCORPORATED, priority 2016, published 2019).
